The nature of test [1]: StAR promoter reporter inhibition counter-screen, dose response, counter-screen for LRH-1 inverse agonist project, cell-based, luminescence, luciferase reporter (AID 651969). The class given is functional.
Test [2] concerns the target T1, Sentrin-specific protease 7 (Homo sapiens, UniProt Q9BQF6).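 Further: Luminescence-based dose-response confirmation of ultra-high-throughput screening hits, measuring inhibition of SENP7.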
T1 sequence (Q9BQF6 whole entry): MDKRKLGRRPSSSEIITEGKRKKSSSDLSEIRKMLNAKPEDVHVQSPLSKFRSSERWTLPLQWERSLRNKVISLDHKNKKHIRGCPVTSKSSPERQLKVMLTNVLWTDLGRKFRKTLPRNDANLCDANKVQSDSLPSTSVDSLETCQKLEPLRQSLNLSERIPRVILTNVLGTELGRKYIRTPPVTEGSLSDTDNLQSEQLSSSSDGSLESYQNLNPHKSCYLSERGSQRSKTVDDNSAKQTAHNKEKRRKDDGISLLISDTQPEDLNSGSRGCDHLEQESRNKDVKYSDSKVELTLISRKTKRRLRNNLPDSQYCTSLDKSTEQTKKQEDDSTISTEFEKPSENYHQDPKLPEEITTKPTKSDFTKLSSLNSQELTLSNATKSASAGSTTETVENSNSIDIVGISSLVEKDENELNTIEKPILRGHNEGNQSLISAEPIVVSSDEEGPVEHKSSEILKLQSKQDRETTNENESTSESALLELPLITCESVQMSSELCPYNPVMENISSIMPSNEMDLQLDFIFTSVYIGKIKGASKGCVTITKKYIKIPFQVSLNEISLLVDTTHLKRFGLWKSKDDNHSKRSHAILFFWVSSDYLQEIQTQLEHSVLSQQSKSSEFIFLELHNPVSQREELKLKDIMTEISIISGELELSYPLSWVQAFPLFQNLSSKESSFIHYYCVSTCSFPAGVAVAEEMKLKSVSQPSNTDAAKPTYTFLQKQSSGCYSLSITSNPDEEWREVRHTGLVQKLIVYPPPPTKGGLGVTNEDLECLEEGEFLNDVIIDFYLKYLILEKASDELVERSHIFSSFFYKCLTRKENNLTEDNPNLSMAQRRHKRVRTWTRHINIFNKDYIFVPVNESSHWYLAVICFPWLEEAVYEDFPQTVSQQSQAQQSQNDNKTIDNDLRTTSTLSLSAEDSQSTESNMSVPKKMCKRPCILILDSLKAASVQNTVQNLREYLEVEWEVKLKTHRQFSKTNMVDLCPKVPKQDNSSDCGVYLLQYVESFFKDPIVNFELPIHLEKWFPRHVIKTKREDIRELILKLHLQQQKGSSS
The class given is functional.

In test [3] the target is T2, Sentrin-specific protease 8 (Homo sapiens, UniProt Q96LD8).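 Further: luminescence read-out of SENP8 inhibition, dose-response confirmation following an ultra-high-throughput screen.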
T2 sequence (Q96LD8 whole entry): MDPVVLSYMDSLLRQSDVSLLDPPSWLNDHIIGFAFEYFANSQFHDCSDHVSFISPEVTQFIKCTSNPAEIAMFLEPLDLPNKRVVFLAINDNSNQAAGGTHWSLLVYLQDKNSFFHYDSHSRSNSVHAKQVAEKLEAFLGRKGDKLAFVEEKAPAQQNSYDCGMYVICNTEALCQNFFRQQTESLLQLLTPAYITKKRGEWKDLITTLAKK
It counts as functional.

A further test concerns the target T3, Caspase-3 (Homo sapiens, UniProt P42574).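 Further: Dose-response selectivity test against caspase-3 for candidate inhibitors of sentrin-specific proteases (SENPs).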
T3 sequence (P42574 whole entry): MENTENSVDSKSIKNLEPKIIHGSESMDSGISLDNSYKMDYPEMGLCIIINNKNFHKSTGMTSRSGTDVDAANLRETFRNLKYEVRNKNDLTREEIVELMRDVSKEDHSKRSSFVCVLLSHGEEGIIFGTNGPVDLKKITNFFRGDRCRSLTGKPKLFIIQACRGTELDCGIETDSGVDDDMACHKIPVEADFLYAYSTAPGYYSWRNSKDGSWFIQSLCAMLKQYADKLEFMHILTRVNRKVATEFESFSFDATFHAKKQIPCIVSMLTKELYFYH
The class given is functional.

Test [4] relates to HEK293. The experiment in a line: cells. The class given is functional, cell-based. The following applies: Homo sapiens.
The subject of test [5] is HEK293. Description: cells. It counts as functional, cell-based. The following applies: Homo sapiens. This is another data set of the same source.
The subject of test [6] is HEK293. The experiment in a line: NOD2 signaling inhibitors in MDP-stimulated cells, cell-based, uHTS, luminescence (AID 2001). The class given is functional. The following applies: Homo sapiens.
Another test concerns the target Steroidogenic factor 1 (Homo sapiens, UniProt Q13285). Description: Counterscreen for inverse agonists of the liver receptor homolog-1 (LRH-1; NR5A2): Luminescence-based cell-based high throughput dose response assay to identify inverse agonists of the Steroidogenic Factor 1 Nuclear Receptor (SF1; NR5A1). The class given is functional.
In test [7] the test system is HEK293. The experiment in a line: NOD1 signaling inhibitors, primary screen, cell-based, luminescence, uHTS (AID 1578). It counts as functional. The following applies: Homo sapiens.
Test [8] in a line: THP-1 cell cytotoxicity, dose response, cytotoxicity control for non-replicating M. tuberculosis project (AID 489025). It counts as functional.
Another test is described as follows: cells. The class given is functional.
For test [9], the target named is T4, Sentrin-specific protease 6 (Homo sapiens, UniProt Q9GZR1).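 Further: Luminescence-based dose-response confirmatory assay of SENP6 inhibition, following up an ultra-high-throughput screen.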
T4 sequence (Q9GZR1 whole entry): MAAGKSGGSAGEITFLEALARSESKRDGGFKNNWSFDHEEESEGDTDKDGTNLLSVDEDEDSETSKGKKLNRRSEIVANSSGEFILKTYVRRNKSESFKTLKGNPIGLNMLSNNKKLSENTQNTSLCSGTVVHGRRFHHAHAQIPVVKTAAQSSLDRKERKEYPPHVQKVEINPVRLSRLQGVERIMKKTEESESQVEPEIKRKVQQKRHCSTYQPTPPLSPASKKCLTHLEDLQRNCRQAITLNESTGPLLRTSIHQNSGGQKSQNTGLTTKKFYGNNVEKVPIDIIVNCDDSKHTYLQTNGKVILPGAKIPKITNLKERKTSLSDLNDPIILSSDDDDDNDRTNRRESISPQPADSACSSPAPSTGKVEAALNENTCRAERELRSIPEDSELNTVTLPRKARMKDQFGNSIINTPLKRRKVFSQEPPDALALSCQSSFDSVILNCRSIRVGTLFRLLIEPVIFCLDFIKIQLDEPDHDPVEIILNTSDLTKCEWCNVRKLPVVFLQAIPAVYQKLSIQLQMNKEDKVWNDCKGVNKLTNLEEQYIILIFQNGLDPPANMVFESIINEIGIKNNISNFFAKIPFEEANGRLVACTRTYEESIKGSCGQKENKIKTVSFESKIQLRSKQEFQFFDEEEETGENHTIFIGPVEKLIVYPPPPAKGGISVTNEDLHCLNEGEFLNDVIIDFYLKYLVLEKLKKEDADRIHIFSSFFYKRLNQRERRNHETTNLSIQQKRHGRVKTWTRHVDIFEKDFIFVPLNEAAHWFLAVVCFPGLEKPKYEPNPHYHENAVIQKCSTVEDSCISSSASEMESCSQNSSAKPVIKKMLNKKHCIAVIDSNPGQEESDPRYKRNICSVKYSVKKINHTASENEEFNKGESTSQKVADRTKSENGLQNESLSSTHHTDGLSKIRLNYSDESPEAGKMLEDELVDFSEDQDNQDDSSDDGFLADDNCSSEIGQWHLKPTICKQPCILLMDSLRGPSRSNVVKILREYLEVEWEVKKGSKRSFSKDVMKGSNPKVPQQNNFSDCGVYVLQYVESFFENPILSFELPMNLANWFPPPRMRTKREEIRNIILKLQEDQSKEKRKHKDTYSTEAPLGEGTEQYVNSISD
It counts as functional.

The target in test [10] is Nuclear receptor subfamily 5 group A member 2 (Homo sapiens, UniProt O00482). It counts as functional, cell-based.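 Further: HEK293T cells transfected with LRH-1 and a StAR promoter luciferase reporter; potency for inhibitors that lower LRH-1 driven reporter light.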
Test [11] has as its target Nucleotide-binding oligomerization domain-containing protein 2 (Homo sapiens, UniProt Q9HC29). The experiment in a line: NOD2 signaling inhibitors, cell-based, luminescence, uHTS, HEK293 (AID 1566). It counts as functional.
The subject of test [12] is HEK293. The experiment in a line: cells. It counts as functional, cell-based. The following applies: Homo sapiens. This is another data set of the same source.
A short description of test [13]: cytotoxicity toward DRD oncogenic fibroblasts, dose response, cell-based, non-viral oncogenic, luminescence (AID 1934). The class given is functional. The following applies: Homo sapiens.
A further test has as its target T5, Protein RecA (Mycobacterium tuberculosis, UniProt P9WHJ3).
T5 sequence (P9WHJ3 whole entry): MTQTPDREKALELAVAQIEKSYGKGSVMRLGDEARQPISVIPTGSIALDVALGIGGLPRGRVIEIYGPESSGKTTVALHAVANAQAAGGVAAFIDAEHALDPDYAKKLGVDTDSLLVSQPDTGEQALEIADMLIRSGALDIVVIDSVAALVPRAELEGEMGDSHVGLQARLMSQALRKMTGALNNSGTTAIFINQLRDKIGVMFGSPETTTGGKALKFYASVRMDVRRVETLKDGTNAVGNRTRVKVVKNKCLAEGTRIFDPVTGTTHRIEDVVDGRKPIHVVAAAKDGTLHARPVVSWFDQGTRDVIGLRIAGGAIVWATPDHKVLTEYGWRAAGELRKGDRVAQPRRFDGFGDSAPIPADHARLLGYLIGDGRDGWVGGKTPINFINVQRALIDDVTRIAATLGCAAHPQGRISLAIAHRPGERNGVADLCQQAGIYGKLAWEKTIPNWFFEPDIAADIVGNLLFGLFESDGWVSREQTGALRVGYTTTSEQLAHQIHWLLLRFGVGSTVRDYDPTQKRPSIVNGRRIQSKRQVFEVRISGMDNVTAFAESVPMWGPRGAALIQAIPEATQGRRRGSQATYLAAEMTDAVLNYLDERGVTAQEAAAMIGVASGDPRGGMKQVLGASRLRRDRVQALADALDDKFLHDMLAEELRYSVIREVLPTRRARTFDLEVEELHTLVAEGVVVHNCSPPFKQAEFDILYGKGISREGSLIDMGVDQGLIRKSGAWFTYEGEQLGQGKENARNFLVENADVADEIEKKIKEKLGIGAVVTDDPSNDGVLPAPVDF
Description: Fluorescence Cell-Free Homogeneous Dose Retest to Identify Inhibitors of RecA-Intein Splicing Activity. [Related pubchem assays (depositor defined):AID2097, AID2223, AID489010, AID492950]. It counts as functional.

In test [14] the test system is BJ. Description: cytotoxicity toward BJ-TERT fibroblasts, dose response, cell-based, RAS-independent, luminescence (AID 1933). The class given is functional. The following applies: Homo sapiens.
Test [15] has as its system BJ. The experiment in a line: cells. The following applies: Homo sapiens. It counts as functional, cell-based.
The test system of test [16] is BJ. Description: cytotoxicity toward BJ-TERT-LT-ST fibroblasts, dose response, cell-based, RAS-independent, luminescence (AID 1935).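 Further: BJ fibroblasts immortalized with TERT plus LT and ST oncogenes.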 The class given is functional. The following applies: Homo sapiens.
In test [17] the target is T6, Replicative DNA helicase DnaB (Mycobacterium tuberculosis, UniProt P9WMR3).
T6 sequence (P9WMR3 whole entry): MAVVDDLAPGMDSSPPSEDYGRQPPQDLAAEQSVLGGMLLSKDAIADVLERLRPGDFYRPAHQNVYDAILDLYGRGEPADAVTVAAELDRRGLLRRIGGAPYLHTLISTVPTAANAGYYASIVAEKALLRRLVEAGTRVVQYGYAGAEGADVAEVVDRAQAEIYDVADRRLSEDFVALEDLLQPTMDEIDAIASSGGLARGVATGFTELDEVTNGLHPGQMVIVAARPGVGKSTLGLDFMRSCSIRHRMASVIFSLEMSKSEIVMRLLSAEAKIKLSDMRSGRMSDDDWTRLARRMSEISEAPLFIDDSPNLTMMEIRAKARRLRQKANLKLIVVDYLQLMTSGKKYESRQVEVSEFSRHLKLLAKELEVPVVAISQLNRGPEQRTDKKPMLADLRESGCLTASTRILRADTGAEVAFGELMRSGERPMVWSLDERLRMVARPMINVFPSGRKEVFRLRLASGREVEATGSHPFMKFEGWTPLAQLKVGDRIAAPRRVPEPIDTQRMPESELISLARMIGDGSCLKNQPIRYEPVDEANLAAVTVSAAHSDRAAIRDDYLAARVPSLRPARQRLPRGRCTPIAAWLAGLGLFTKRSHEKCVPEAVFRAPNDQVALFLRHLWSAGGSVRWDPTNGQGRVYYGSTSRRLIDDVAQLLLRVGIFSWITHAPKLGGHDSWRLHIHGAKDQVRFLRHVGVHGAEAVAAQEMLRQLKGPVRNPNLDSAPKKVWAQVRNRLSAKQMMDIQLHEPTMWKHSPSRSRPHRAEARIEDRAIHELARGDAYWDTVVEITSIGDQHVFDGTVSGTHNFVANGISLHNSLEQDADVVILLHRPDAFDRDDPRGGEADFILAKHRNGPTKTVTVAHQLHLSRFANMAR
Description: DnaB intein splicing inhibitors, dose response, biochemical, cell-free fluorescence (AID 449749). It counts as functional.

Structures are written as SMILES. Activity calls are given as the source filed them.

Three molecules from ChEMBL document CHEMBL1201862, “PubChem BioAssay data set” (2004) can be followed below.

Chain of Nucleotide-binding oligomerization domain-containing protein 2 (Q9HC29 whole entry, the tested form may be a part): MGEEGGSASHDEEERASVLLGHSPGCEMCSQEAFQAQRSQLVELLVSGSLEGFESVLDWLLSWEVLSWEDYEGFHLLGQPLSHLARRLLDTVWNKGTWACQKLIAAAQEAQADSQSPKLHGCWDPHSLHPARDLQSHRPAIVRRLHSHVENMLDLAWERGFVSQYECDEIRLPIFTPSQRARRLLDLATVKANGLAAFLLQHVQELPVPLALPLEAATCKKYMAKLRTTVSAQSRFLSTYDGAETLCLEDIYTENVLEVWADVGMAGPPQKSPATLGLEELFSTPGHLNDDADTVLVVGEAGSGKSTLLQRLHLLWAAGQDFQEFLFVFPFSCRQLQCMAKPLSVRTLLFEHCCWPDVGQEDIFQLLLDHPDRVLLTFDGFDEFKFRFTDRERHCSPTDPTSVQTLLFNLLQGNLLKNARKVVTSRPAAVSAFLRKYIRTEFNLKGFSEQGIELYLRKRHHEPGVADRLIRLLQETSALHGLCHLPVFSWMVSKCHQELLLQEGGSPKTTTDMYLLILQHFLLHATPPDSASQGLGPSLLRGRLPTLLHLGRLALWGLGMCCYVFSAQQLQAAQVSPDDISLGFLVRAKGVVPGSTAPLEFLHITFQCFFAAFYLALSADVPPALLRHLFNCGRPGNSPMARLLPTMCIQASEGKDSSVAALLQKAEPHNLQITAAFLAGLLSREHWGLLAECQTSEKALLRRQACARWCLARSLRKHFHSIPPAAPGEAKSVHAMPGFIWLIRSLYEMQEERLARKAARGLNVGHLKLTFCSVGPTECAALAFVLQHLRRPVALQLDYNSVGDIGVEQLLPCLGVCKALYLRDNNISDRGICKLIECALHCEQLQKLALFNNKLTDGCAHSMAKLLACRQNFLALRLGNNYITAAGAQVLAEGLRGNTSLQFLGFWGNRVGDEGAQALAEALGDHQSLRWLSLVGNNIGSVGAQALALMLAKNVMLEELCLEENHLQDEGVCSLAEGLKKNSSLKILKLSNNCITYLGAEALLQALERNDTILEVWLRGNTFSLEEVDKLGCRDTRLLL
Chain of Steroidogenic factor 1 (Q13285 whole entry): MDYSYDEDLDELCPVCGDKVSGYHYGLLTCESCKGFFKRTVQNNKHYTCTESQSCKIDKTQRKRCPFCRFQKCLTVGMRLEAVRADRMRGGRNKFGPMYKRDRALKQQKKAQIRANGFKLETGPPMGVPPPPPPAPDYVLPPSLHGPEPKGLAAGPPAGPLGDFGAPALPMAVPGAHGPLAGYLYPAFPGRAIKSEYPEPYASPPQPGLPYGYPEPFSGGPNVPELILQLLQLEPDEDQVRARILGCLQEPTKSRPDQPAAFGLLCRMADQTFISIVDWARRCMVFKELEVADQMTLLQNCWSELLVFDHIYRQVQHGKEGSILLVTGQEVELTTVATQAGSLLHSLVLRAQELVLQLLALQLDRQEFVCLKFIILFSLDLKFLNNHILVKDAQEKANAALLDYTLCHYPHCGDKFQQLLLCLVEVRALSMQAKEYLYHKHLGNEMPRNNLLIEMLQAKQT
Chain of Nuclear receptor subfamily 5 group A member 2 (O00482 whole entry, the tested form may be a part): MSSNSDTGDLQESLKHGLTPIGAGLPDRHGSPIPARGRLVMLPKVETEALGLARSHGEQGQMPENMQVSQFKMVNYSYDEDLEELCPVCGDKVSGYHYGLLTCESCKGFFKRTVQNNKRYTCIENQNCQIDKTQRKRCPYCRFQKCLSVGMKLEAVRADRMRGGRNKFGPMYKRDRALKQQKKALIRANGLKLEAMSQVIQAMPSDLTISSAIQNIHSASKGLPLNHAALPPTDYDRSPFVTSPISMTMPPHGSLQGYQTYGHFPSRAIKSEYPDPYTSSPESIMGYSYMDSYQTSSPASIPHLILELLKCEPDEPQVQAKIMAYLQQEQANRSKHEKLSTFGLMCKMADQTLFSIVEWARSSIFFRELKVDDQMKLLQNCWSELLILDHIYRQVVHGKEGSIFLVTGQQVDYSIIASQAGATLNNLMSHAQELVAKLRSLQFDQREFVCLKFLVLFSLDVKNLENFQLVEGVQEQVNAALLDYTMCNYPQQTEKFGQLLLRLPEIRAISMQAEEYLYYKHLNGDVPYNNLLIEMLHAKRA

On to `O=C(Nc1nc2c(Cl)cccc2s1)c1ccc([N+](=O)[O-])o1`, for which the IC50 was 35.9 µM (inactive) in [1]; 17.2 µM (active) in [2]; 32.9 µM (active) in [3]; 61.8 µM (active) at Caspase-3; 7.38 µM (active) in the test on HEK293 [4]; 18.6 µM (active) in the test with HEK293 [5]. Besides, the IC50 is 13.2 µM (inactive) in the test with HEK293 [6]; 0.443 µM (active) on Steroidogenic factor 1; 10.4 µM (active) in “cells”; 20.3 µM (active) in [9]; 0.148 µM (active) in [10]. Moreover, the half-maximal effective concentration (EC50) in the test with HEK293 [7] was 5.52 µM (active). The CC50 in test [8] is 39.3 µM (active).
For the molecule `CCOC(=O)c1sc2ccccc2c1OC(=O)c1ccc(C)cc1`, the concentration giving a half-maximal response (EC50) in [11] is 2.22 µM (active); with HEK293 [7], 10.7 µM (active). Also, the IC50 in the test on HEK293 [4] is > 20 µM (inactive); in the test on HEK293 [5] it was 9.53 µM (active); in the test with HEK293 [6], 6.76 µM (active); with HEK293 [12] it was > 20 µM (inactive).
`O=C(CCl)Nc1cc(-c2ccccc2)nn1-c1ccccc1`: the EC50 is > 20 µM (inactive) in test [11]; 8.91 µM (active) in test [13]; 5.55 µM (active) on Protein RecA; 5.38 µM (inconclusive) in the test with BJ [14]; 9.6 µM (active) in the test with BJ [15]; 5.05 µM (active) in the test with BJ [16]. The EC50 with HEK293 [7] is 4.71 µM (active). Also, the half-inhibitory concentration (IC50) is 19.2 µM (active) with HEK293 [4], 4.63 µM (active) in the test with HEK293 [5], 7.21 µM (active) in the test with HEK293 [6] and > 20 µM (inactive) in the test with HEK293 [12]. Besides, the AC50 in test [17] was > 380 µM (inactive).
